From ChEMBL document CHEMBL3885861, “Open TG-GATES”

Organism: Rattus norvegicus
Assay: Open TG-GATES - Regimen: Daily Repeat
Assay type: toxicity, organism-based, Sprague-Dawley
Set-up: regimen Daily Repeat, gender Male, age 6 weeks
Conditions: in vivo, po, 0 mg/kg, route gavage, dose level Control; for APTT / Bas / Eos / Fbg / Hb / Ht / Lym / MCH / MCHC / MCV / Mono / Neu / PT / Plat / RBC / Ret / WBC: tissue Blood; for KIDNEY_L / KIDNEY_R / KIDNEY_TOTAL: tissue Kidney; for LIVER: tissue Liver; for A/G / ALP / ALT / AST / BUN / CRE / Ca / Cl / DBIL / GLC / IP / K / LDH / Na / PL / RALB / TBIL / TC / TG / TP / gamma-GTP: tissue Plasma

Brc1ccccc1 [BROMOBENZENE]
TERMINAL_BW (72 h, time 3 day): 210.3 g | APTT (72 h, time 3 day): 15.5 s | Bas (72 h, time 3 day): 0% | Eos (72 h, time 3 day): 1% | Fbg (72 h, time 3 day): 264.4 mg/dL | Hb (72 h, time 3 day): 13.1 g/dL | Ht (72 h, time 3 day): 38.3% | Lym (72 h, time 3 day): 79.8% | MCH (72 h, time 3 day): 21.4 pg | MCHC (72 h, time 3 day): 34.3% | MCV (72 h, time 3 day): 62.4 fL | Mono (72 h, time 3 day): 3.2% | Neu (72 h, time 3 day): 15.6% | PT (72 h, time 3 day): 12 s | Plat (72 h, time 3 day): 116.4 x10_4/uL | RBC (72 h, time 3 day): 613.6 x10_4/ul | Ret (72 h, time 3 day): 7.8% | WBC (72 h, time 3 day): 89.2 x10_2/uL | KIDNEY_L (72 h, time 3 day): 0.9 g | KIDNEY_R (72 h, time 3 day): 0.8 g | KIDNEY_TOTAL (72 h, time 3 day): 1.7 g | LIVER (72 h, time 3 day): 10 g | A/G (72 h, time 3 day): 0.9 | ALP (72 h, time 3 day): 1625.4 IU/L | ALT (72 h, time 3 day): 52.2 IU/L | AST (72 h, time 3 day): 77.8 IU/L | BUN (72 h, time 3 day): 14.8 mg/dL | CRE (72 h, time 3 day): 0.2 mg/dL | Ca (72 h, time 3 day): 10.2 mg/dL | Cl (72 h, time 3 day): 104.8 meq/L | DBIL (72 h, time 3 day): 0.012 mg/dL | GLC (72 h, time 3 day): 187 mg/dL | IP (72 h, time 3 day): 7.6 mg/dL | K (72 h, time 3 day): 4 meq/L | LDH (72 h, time 3 day): 63.6 IU/L | Na (72 h, time 3 day): 141.8 meq/L | PL (72 h, time 3 day): 142.6 mg/dL | RALB (72 h, time 3 day): 2.6 g/dL | TBIL (72 h, time 3 day): 0.04 mg/dL | TC (72 h, time 3 day): 79 mg/dL | TG (72 h, time 3 day): 101 mg/dL | TP (72 h, time 3 day): 5.7 g/dL | gamma-GTP (72 h, time 3 day): 1.2 IU/L | TERMINAL_BW ([…], time 7 day): 242.1 g | TERMINAL_BW ([…], time 14 day): 295 g | TERMINAL_BW ([…], time 28 day): 384.4 g | APTT ([…], time 7 day): 15.7 s | Bas ([…], time 7 day): 0.2% | Eos ([…], time 7 day): 1% | Fbg ([…], time 7 day): 283.4 mg/dL | Hb ([…], time 7 day): 13.4 g/dL | Ht ([…], time 7 day): 39% | Lym ([…], time 7 day): 78.4% | MCH ([…], time 7 day): 21.4 pg | MCHC ([…], time 7 day): 34.5% | MCV ([…], time 7 day): 61.9 fL | Mono ([…], time 7 day): 2.8% | Neu ([…], time 7 day): 18% | PT ([…], time 7 day): 12.3 s | Plat ([…], time 7 day): 115.5 x10_4/uL | RBC ([…], time 7 day): 630.4 x10_4/ul | Ret ([…], time 7 day): 5.8% | WBC ([…], time 7 day): 112.8 x10_2/uL | APTT ([…], time 14 day): 15.8 s | Bas ([…], time 14 day): 0% | Eos ([…], time 14 day): 0.8% | Fbg ([…], time 14 day): 320.2 mg/dL | Hb ([…], time 14 day): 13.8 g/dL | Ht ([…], time 14 day): 39.9% | Lym ([…], time 14 day): 77% | MCH ([…], time 14 day): 20.8 pg | MCHC ([…], time 14 day): 34.7% | MCV ([…], time 14 day): 60 fL | Mono ([…], time 14 day): 2.4% | Neu ([…], time 14 day): 19% | PT ([…], time 14 day): 12 s | Plat ([…], time 14 day): 113.5 x10_4/uL | RBC ([…], time 14 day): 665.6 x10_4/ul | Ret ([…], time 14 day): 4.4% | WBC ([…], time 14 day): 89.1 x10_2/uL | APTT ([…], time 28 day): 17.6 s | Bas ([…], time 28 day): 0% | Eos ([…], time 28 day): 1.6% | Fbg ([…], time 28 day): 301 mg/dL | Hb ([…], time 28 day): 14.9 g/dL | Ht ([…], time 28 day): 42.4% | Lym ([…], time 28 day): 79.4% | MCH ([…], time 28 day): 19.4 pg | MCHC ([…], time 28 day): 35.1% | MCV ([…], time 28 day): 55.4 fL | Mono ([…], time 28 day): 2.6% | Neu ([…], time 28 day): 15.4% | PT ([…], time 28 day): 12.5 s | Plat ([…], time 28 day): 103.9 x10_4/uL | RBC ([…], time 28 day): 765 x10_4/ul | Ret ([…], time 28 day): 2.4% | WBC ([…], time 28 day): 110.4 x10_2/uL | KIDNEY_L ([…], time 7 day): 1 g | KIDNEY_R ([…], time 7 day): 1 g | KIDNEY_TOTAL ([…], time 7 day): 2 g | KIDNEY_L ([…], time 14 day): 1.2 g | KIDNEY_R ([…], time 14 day): 1.1 g | KIDNEY_TOTAL ([…], time 14 day): 2.3 g | KIDNEY_L ([…], time 28 day): 1.3 g | KIDNEY_R ([…], time 28 day): 1.3 g | KIDNEY_TOTAL ([…], time 28 day): 2.6 g | LIVER ([…], time 7 day): 11 g | LIVER ([…], time 14 day): 12.9 g | LIVER ([…], time 28 day): 16.6 g | A/G ([…], time 7 day): 0.8 | ALP ([…], time 7 day): 1737.2 IU/L | ALT ([…], time 7 day): 51 IU/L | AST ([…], time 7 day): 72.6 IU/L | BUN ([…], time 7 day): 14.8 mg/dL | CRE ([…], time 7 day): 0.2 mg/dL | Ca ([…], time 7 day): 11 mg/dL | Cl ([…], time 7 day): 107 meq/L | DBIL ([…], time 7 day): 0.012 mg/dL | GLC ([…], time 7 day): 191.2 mg/dL | IP ([…], time 7 day): 7 mg/dL | K ([…], time 7 day): 3.9 meq/L | LDH ([…], time 7 day): 97 IU/L | Na ([…], time 7 day): 143.8 meq/L | PL ([…], time 7 day): 145.8 mg/dL | RALB ([…], time 7 day): 2.7 g/dL | TBIL ([…], time 7 day): 0.044 mg/dL | TC ([…], time 7 day): 75.4 mg/dL | TG ([…], time 7 day): 90.2 mg/dL | TP ([…], time 7 day): 5.9 g/dL | gamma-GTP ([…], time 7 day): 1 IU/L | A/G ([…], time 14 day): 0.8 | ALP ([…], time 14 day): 1619.6 IU/L | ALT ([…], time 14 day): 39.2 IU/L | AST ([…], time 14 day): 67.8 IU/L | BUN ([…], time 14 day): 15.8 mg/dL | CRE ([…], time 14 day): 0.2 mg/dL | Ca ([…], time 14 day): 10.8 mg/dL | Cl ([…], time 14 day): 106.6 meq/L | DBIL ([…], time 14 day): 0 mg/dL | GLC ([…], time 14 day): 191.6 mg/dL | IP ([…], time 14 day): 6.8 mg/dL | K ([…], time 14 day): 3.9 meq/L | LDH ([…], time 14 day): 64.2 IU/L | Na ([…], time 14 day): 143.2 meq/L | PL ([…], time 14 day): 153 mg/dL | RALB ([…], time 14 day): 2.7 g/dL | TBIL ([…], time 14 day): 0.032 mg/dL | TC ([…], time 14 day): 75.6 mg/dL | TG ([…], time 14 day): 95 mg/dL | TP ([…], time 14 day): 5.9 g/dL | gamma-GTP ([…], time 14 day): 1 IU/L | A/G ([…], time 28 day): 0.8 | ALP ([…], time 28 day): 1341.6 IU/L | ALT ([…], time 28 day): 45.8 IU/L | AST ([…], time 28 day): 64 IU/L | BUN ([…], time 28 day): 16 mg/dL | CRE ([…], time 28 day): 0.2 mg/dL | Ca ([…], time 28 day): 10.7 mg/dL | Cl ([…], time 28 day): 104 meq/L | DBIL ([…], time 28 day): 0.018 mg/dL | GLC ([…], time 28 day): 186.6 mg/dL | IP ([…], time 28 day): 6 mg/dL | K ([…], time 28 day): 3.8 meq/L | LDH ([…], time 28 day): 71.4 IU/L | Na ([…], time 28 day): 142.2 meq/L | PL ([…], time 28 day): 157.8 mg/dL | RALB ([…], time 28 day): 2.9 g/dL | TBIL ([…], time 28 day): 0.036 mg/dL | TC ([…], time 28 day): 80.2 mg/dL | TG ([…], time 28 day): 158.4 mg/dL | TP ([…], time 28 day): 6.5 g/dL | gamma-GTP ([…], time 28 day): 1 IU/L
